Data as given in PMC10504751, “Chalcone/1,3,4-Oxadiazole/Benzimidazole hybrids as novel anti-proliferative agents inducing apoptosis and inhibiting EGFR & BRAFV^600E” (BMC Chemistry, 2023).
Where two headings read alike, the source gives them in different places.

Columns and labels:
Assay in all cases: NCI one-dose SRB anti-proliferative screen
Type in all cases: cell-based
[1] = test system: BT-549; details: Homo sapiens, read-out: Cell growth inhibition %
Outline: (§1)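 Each hybrid is applied once, at 10 µM, and anti-proliferative effect is quantified by SRB colorimetry.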

[2] = test system: CAKI-1; details: Homo sapiens, read-out: Cell growth inhibition %
Outline: as §1

[3] = test system: COLO 205; details: Homo sapiens, read-out: Cell growth inhibition %
Outline: as §1

[4] = test system: HOP-62; details: Homo sapiens, read-out: Cell growth inhibition %
Outline: as §1

[5] = test system: HOP-92; details: Homo sapiens, read-out: Cell growth inhibition %
Outline: as §1

[6] = test system: M14; details: Homo sapiens; M14 (Melanoma), NCI one dose 10 µM; read-out: Cell growth inhibition %
Outline: as §1

[7] = test system: MALME-3M; details: Homo sapiens, read-out: Cell growth inhibition %
Outline: as §1

[8] = test system: MDA-MB-231/ATCC; details: Homo sapiens, read-out: Cell growth inhibition %
Outline: as §1

[9] = test system: MDA-MB-435; details: Homo sapiens, read-out: Cell growth inhibition %
Outline: as §1

[10] = test system: NCI-H460; details: Homo sapiens, read-out: Cell growth inhibition %
Outline: as §1

[11] = test system: NCI/ADR-RES; details: Homo sapiens, read-out: Cell growth inhibition %
Outline: as §1

[12] = test system: RPMI-8226; details: Homo sapiens, read-out: Cell growth inhibition %
Outline: as §1

[13] = test system: SF-295; details: Homo sapiens, read-out: Cell growth inhibition %
Outline: as §1

[14] = test system: SK-MEL-28; details: Homo sapiens, read-out: Cell growth inhibition %
Outline: as §1

[15] = test system: SK-MEL-2; details: Homo sapiens, read-out: Cell growth inhibition %
Outline: as §1

[16] = test system: SK-MEL-5; details: Homo sapiens, read-out: Cell growth inhibition %
Outline: as §1

[17] = test system: SN12C; details: Homo sapiens, read-out: Cell growth inhibition %
Outline: as §1

[18] = test system: SNB-19; details: Homo sapiens, read-out: Cell growth inhibition %
Outline: as §1

[19] = test system: SNB-75; details: Homo sapiens, read-out: Cell growth inhibition %
Outline: as §1

[20] = test system: SR; details: Homo sapiens, read-out: Cell growth inhibition %
Outline: as §1

[21] = test system: UO-31; details: Homo sapiens, read-out: Cell growth inhibition %
Outline: as §1

[22] = BT-549 (Breast Cancer), NCI one dose 10 µM
[23] = CAKI-1 (Renal Cancer), NCI one dose 10 µM
[24] = COLO 205 (Colon Cancer), NCI one dose 10 µM
[25] = HOP-62 (Non-Small Cell Lung Cancer), NCI one dose 10 µM
[26] = HOP-92 (Non-Small Cell Lung Cancer), NCI one dose 10 µM
[27] = MALME-3M (Melanoma), NCI one dose 10 µM
[28] = MDA-MB-231/ATCC (Breast Cancer), NCI one dose 10 µM
[29] = MDA-MB-435 (Melanoma), NCI one dose 10 µM
[30] = NCI-H460 (Non-Small Cell Lung Cancer), NCI one dose 10 µM
[31] = NCI/ADR-RES (Ovarian Cancer), NCI one dose 10 µM
[32] = RPMI-8226 (Leukemia), NCI one dose 10 µM
[33] = SF-295 (CNS Cancer), NCI one dose 10 µM
[34] = SK-MEL-28 (Melanoma), NCI one dose 10 µM
[35] = SK-MEL-2 (Melanoma), NCI one dose 10 µM
[36] = SK-MEL-5 (Melanoma), NCI one dose 10 µM
[37] = SN 12C (Renal Cancer), NCI one dose 10 µM
[38] = SNB-19 (CNS Cancer), NCI one dose 10 µM
[39] = SNB-75 (CNS Cancer), NCI one dose 10 µM
[40] = SR (Leukemia), NCI one dose 10 µM
[41] = UO-31 (Renal Cancer), NCI one dose 10 µM
[42] = BT-549, Breast cancer, NCI one dose
[43] = CAKI-1, Renal cancer, NCI one dose
[44] = COLO 205, Colon cancer, NCI one dose
[45] = HOP-62, Non-Small Cell Lung Cancer, NCI one dose
[46] = HOP-92, Non-Small Cell Lung Cancer, NCI one dose
[47] = MALME-3M, Melanoma, NCI one dose
[48] = MDA-MB-231/ATCC, Breast cancer, NCI one dose
[49] = MDA-MB-435, Melanoma, NCI one dose
[50] = NCI-H460, Non-Small Cell Lung Cancer, NCI one dose
[51] = NCI/ADR-RES, Ovarian Cancer, NCI one dose
[52] = RPMI-8226, Leukemia, NCI one dose
[53] = SF-295, CNS Cancer, NCI one dose
[54] = SK-MEL-28, Melanoma, NCI one dose
[55] = SK-MEL-2, Melanoma, NCI one dose
[56] = SK-MEL-5, Melanoma, NCI one dose
[57] = SN 12C, Renal cancer, NCI one dose
[58] = SNB-19, CNS Cancer, NCI one dose
[59] = SNB-75, CNS Cancer, NCI one dose
[60] = UO-31, Renal cancer, NCI one dose

## COc1ccc(/C=C/C(=O)c2ccc(NC(=O)CSc3nnc(-c4ccc5[nH]c(-c6ccc(OC)c(OC)c6)nc5c4)o3)cc2)cc1 [Compound 7r, 2-{5-[2-(3,4-Dimethoxyphenyl)-1 H-benzo[d]imidazol-5-yl]-1,3,4-oxadiazol-2-ylthio}-N-{4-[(E)-3-(4-methoxyphenyl)acryloyl]phenyl}acetamide]
[1]; [22]
  inhibition at 10 µM: 5.47%
[2]; [23]
  inhibition at 10 µM: 0.08%
[3]; [24]
  inhibition at 10 µM: 0%
[4]; [25]
  inhibition at 10 µM: 0%
[5]; [26]
  inhibition at 10 µM: 5.88%
[6]
  inhibition at 10 µM: 0%
[7]; [27]
  inhibition at 10 µM: 8.71%
[8]; [28]
  inhibition at 10 µM: 4.13%
[9]; [29]
  inhibition at 10 µM: 0%
[10]; [30]
  inhibition at 10 µM: 0%
[11]; [31]
  inhibition at 10 µM: 0%
[12]; [32]
  inhibition at 10 µM: 14.7%
[13]; [33]
  inhibition at 10 µM: 3.2%
[14]; [34]
  inhibition at 10 µM: 0%
[15]; [35]
  inhibition at 10 µM: 0%
[16]; [36]
  inhibition at 10 µM: 10.8%
[17]; [37]
  inhibition at 10 µM: 6.98%
[18]; [38]
  inhibition at 10 µM: 0%
[19]; [39]
  inhibition at 10 µM: 1.88%
[20]; [40]
  inhibition at 10 µM: 30.6%
[21]; [41]
  inhibition at 10 µM: 12.4%

## COc1cc(-c2nc3cc(-c4nnc(SCC(=O)Nc5ccc(C(=O)/C=C/c6ccccc6)cc5)o4)ccc3[nH]2)cc(OC)c1OC [Compound 7u, 2-{5-[2-(3,4,5-Trimethoxyphenyl)-1 H-benzo[d]imidazol-5-yl]-1,3,4-oxadiazol-2-ylthio}-N-{4-[(E)-3-phenylacryloyl]phenyl}acetamide]
[1]; [22]
  inhibition at 10 µM: 28.9%
[2]; [23]
  inhibition at 10 µM: 0%
[3]; [24]
  inhibition at 10 µM: 0%
[4]; [25]
  inhibition at 10 µM: 0%
[5]; [26]
  inhibition at 10 µM: 9.74%
[6]
  inhibition at 10 µM: 0%
[7]; [27]
  inhibition at 10 µM: 2.82%
[8]; [28]
  inhibition at 10 µM: 4.05%
[9]; [29]
  inhibition at 10 µM: 6.83%
[10]; [30]
  inhibition at 10 µM: 0%
[11]; [31]
  inhibition at 10 µM: 0%
[12]; [32]
  inhibition at 10 µM: 24.2%
[13]; [33]
  inhibition at 10 µM: 2%
[14]; [34]
  inhibition at 10 µM: 0%
[15]; [35]
  inhibition at 10 µM: 0%
[16]; [36]
  inhibition at 10 µM: 5.99%
[17]; [37]
  inhibition at 10 µM: 13.2%
[18]; [38]
  inhibition at 10 µM: 0%
[19]; [39]
  inhibition at 10 µM: 13.8%
[20]; [40]
  inhibition at 10 µM: 40.3%
[21]; [41]
  inhibition at 10 µM: 21%

## O=C(CSc1nnc(-c2ccc3[nH]c(-c4ccccc4)nc3c2)o1)Nc1ccc(C(=O)/C=C/c2ccccc2)cc1 [Compound 7a, 2-{5-[2-Phenyl-1 H-benzo[d]imidazol-5-yl]-1,3,4-oxadiazol-2-ylthio}-N-{4-[(E)-3-phenylacryloyl]phenyl}acetamide]
[1]; [42]
  inhibition at 10 µM: 3.16%
[2]; [43]
  inhibition at 10 µM: 0%
[3]; [44]
  inhibition at 10 µM: 0%
[4]; [45]
  inhibition at 10 µM: 0%
[5]; [46]
  inhibition at 10 µM: 0%
[7]; [47]
  inhibition at 10 µM: 5.5%
[8]; [48]
  inhibition at 10 µM: 0%
[9]; [49]
  inhibition at 10 µM: 0%
[10]; [50]
  inhibition at 10 µM: 0%
[11]; [51]
  inhibition at 10 µM: 0%
[12]; [52]
  inhibition at 10 µM: 5.75%
[13]; [53]
  inhibition at 10 µM: 0%
[14]; [54]
  inhibition at 10 µM: 0%
[15]; [55]
  inhibition at 10 µM: 0%
[16]; [56]
  inhibition at 10 µM: 1.68%
[17]; [57]
  inhibition at 10 µM: 2.04%
[18]; [58]
  inhibition at 10 µM: 0.06%
[19]; [59]
  inhibition at 10 µM: 0%
[20]; SR, Leukemia, NCI one dose
  inhibition at 10 µM: 0%
[21]; [60]
  inhibition at 10 µM: 12.6%

## COc1ccc(/C=C/C(=O)c2ccc(NC(=O)CSc3nnc(-c4ccc5[nH]c(-c6ccccc6)nc5c4)o3)cc2)cc1OC [Compound 7d, 2-{5-[2-Phenyl-1 H-benzo[d]imidazol-5-yl]-1,3,4-oxadiazol-2-ylthio}-N-{4-[(E)-3-(3,4-dimethoxyphenyl)acryloyl]phenyl}acetamide]
[1]; [42]
  inhibition at 10 µM: 10.4%
[2]; [43]
  inhibition at 10 µM: 0%
[3]; [44]
  inhibition at 10 µM: 0%
[4]; [45]
  inhibition at 10 µM: 0%
[5]; [46]
  inhibition at 10 µM: 0%
[7]; [47]
  inhibition at 10 µM: 2.37%
[8]; [48]
  inhibition at 10 µM: 0%
[9]; [49]
  inhibition at 10 µM: 0%
[10]; [50]
  inhibition at 10 µM: 0%
[11]; [51]
  inhibition at 10 µM: 0%
[12]; [52]
  inhibition at 10 µM: 14.7%
[13]; [53]
  inhibition at 10 µM: 0%
[14]; [54]
  inhibition at 10 µM: 0%
[15]; [55]
  inhibition at 10 µM: 0%
[16]; [56]
  inhibition at 10 µM: 0%
[17]; [57]
  inhibition at 10 µM: 0%
[18]; [58]
  inhibition at 10 µM: 3.18%
[19]; [59]
  inhibition at 10 µM: 0%
[20]; SR, Leukemia, NCI one dose
  inhibition at 10 µM: 4.34%
[21]; [60]
  inhibition at 10 µM: 11%

## O=C(CSc1nnc(-c2ccc3[nH]c(-c4ccccc4)nc3c2)o1)Nc1ccc(C(=O)/C=C/c2ccc(Cl)cc2)cc1 [Compound 7b, 2-{5-[2-Phenyl-1 H-benzo[d]imidazol-5-yl]-1,3,4-oxadiazol-2-ylthio}-N-{4-[(E)-3-(4-chlorophenyl)acryloyl]phenyl}acetamide]
[1]; [42]
  inhibition at 10 µM: 1.92%
[2]; [43]
  inhibition at 10 µM: 1.52%
[3]; [44]
  inhibition at 10 µM: 0%
[4]; [45]
  inhibition at 10 µM: 0%
[5]; [46]
  inhibition at 10 µM: 0%
[7]; [47]
  inhibition at 10 µM: 0%
[8]; [48]
  inhibition at 10 µM: 4.03%
[9]; [49]
  inhibition at 10 µM: 0%
[10]; [50]
  inhibition at 10 µM: 0%
[11]; [51]
  inhibition at 10 µM: 0%
[12]; [52]
  inhibition at 10 µM: 12.2%
[13]; [53]
  inhibition at 10 µM: 0%
[14]; [54]
  inhibition at 10 µM: 0%
[15]; [55]
  inhibition at 10 µM: 0%
[16]; [56]
  inhibition at 10 µM: 3.35%
[17]; [57]
  inhibition at 10 µM: 9.8%
[18]; [58]
  inhibition at 10 µM: 3.92%
[19]; [59]
  inhibition at 10 µM: 0%
[20]; SR, Leukemia, NCI one dose
  inhibition at 10 µM: 3.59%
[21]; [60]
  inhibition at 10 µM: 25.5%

## COc1ccc(/C=C/C(=O)c2ccc(NC(=O)CSc3nnc(-c4ccc5[nH]c(-c6ccccc6)nc5c4)o3)cc2)cc1 [Compound 7c, 2-{5-[2-Phenyl-1 H-benzo[d]imidazol-5-yl]-1,3,4-oxadiazol-2-ylthio}-N-{4-[(E)-3-(4-methoxyphenyl)acryloyl]phenyl}acetamide]
[1]; [42]
  inhibition at 10 µM: 18.7%
[2]; [43]
  inhibition at 10 µM: 0%
[3]; [44]
  inhibition at 10 µM: 0%
[4]; [45]
  inhibition at 10 µM: 0%
[5]; [46]
  inhibition at 10 µM: 0%
[7]; [47]
  inhibition at 10 µM: 8.64%
[8]; [48]
  inhibition at 10 µM: 0%
[9]; [49]
  inhibition at 10 µM: 0%
[10]; [50]
  inhibition at 10 µM: 0%
[11]; [51]
  inhibition at 10 µM: 0%
[12]; [52]
  inhibition at 10 µM: 50.9%
[13]; [53]
  inhibition at 10 µM: 1.65%
[14]; [54]
  inhibition at 10 µM: 0%
[15]; [55]
  inhibition at 10 µM: 2.65%
[16]; [56]
  inhibition at 10 µM: 16.8%
[17]; [57]
  inhibition at 10 µM: 3.32%
[18]; [58]
  inhibition at 10 µM: 7.28%
[19]; [59]
  inhibition at 10 µM: 0%
[20]; SR, Leukemia, NCI one dose
  inhibition at 10 µM: 12.7%
[21]; [60]
  inhibition at 10 µM: 8.67%
